Experimental data from PubChem BioAssay (NCI).
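Grown in 96-well plates, cells were treated for 48 hours with each compound at five concentrations. Insufficient inhibition: endpoint recorded as highest concentration tested. At the GI50, growth is halved. Definition used: TGI = concentration required for complete inhibition of growth.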

Assays:
Experiment in all cases: NCI tumour cell line growth inhibition, 48 h
MOLT-4 leukemia = tested on: MOLT-4 leukemia
HT29 colon = tested on: HT29 colon
SN12C renal = tested on: SN12C renal
SNB-75 CNS = tested on: SNB-75 CNS
KM12 colon = tested on: KM12 colon
MCF7 breast = tested on: MCF7 breast
COLO 205 colon = tested on: COLO 205 colon
OVCAR-8 ovarian = tested on: OVCAR-8 ovarian
MALME-3M melanoma = tested on: MALME-3M melanoma
MDA-MB-435 = tested on: MDA-MB-435
HL-60(TB) leukemia = tested on: HL-60(TB) leukemia
A498 renal = tested on: A498 renal
OVCAR-5 ovarian = tested on: OVCAR-5 ovarian
OVCAR-4 ovarian = tested on: OVCAR-4 ovarian
EKVX NSCLC = tested on: EKVX NSCLC
K-562 leukemia = tested on: K-562 leukemia
NCI-H23 lung = tested on: NCI-H23 lung
NCI-H522 lung = tested on: NCI-H522 lung
T-47D breast = tested on: T-47D breast
CAKI-1 renal = tested on: CAKI-1 renal
HOP-92 NSCLC = tested on: HOP-92 NSCLC
SNB-19 CNS = tested on: SNB-19 CNS
IGROV1 ovarian = tested on: IGROV1 ovarian
A549 NSCLC = tested on: A549 NSCLC
HOP-62 NSCLC = tested on: HOP-62 NSCLC
LOX IMVI melanoma = tested on: LOX IMVI melanoma
NCI-H226 lung = tested on: NCI-H226 lung
SF-539 CNS = tested on: SF-539 CNS
UACC-257 melanoma = tested on: UACC-257 melanoma
HS 578T breast = tested on: HS 578T breast
SF-268 CNS = tested on: SF-268 CNS
M14 melanoma = tested on: M14 melanoma
BT-549 breast = tested on: BT-549 breast
PC-3 prostate = tested on: PC-3 prostate
SK-MEL-5 melanoma = tested on: SK-MEL-5 melanoma
SK-MEL-28 melanoma = tested on: SK-MEL-28 melanoma
HCT-116 colon = tested on: HCT-116 colon
786-0 renal = tested on: 786-0 renal
SK-MEL-2 melanoma = tested on: SK-MEL-2 melanoma
SF-295 CNS = tested on: SF-295 CNS
HCC-2998 colon = tested on: HCC-2998 colon
TK-10 renal = tested on: TK-10 renal
ACHN renal = tested on: ACHN renal
SK-OV-3 ovarian = tested on: SK-OV-3 ovarian
U251 CNS = tested on: U251 CNS
RXF 393 renal = tested on: RXF 393 renal
CCRF-CEM leukemia = tested on: CCRF-CEM leukemia
DU-145 prostate = tested on: DU-145 prostate
UO-31 renal = tested on: UO-31 renal
NCI/ADR-RES ovarian = tested on: NCI/ADR-RES ovarian
OVCAR-3 ovarian = tested on: OVCAR-3 ovarian
RPMI-8226 leukemia = tested on: RPMI-8226 leukemia
NCI-H460 lung = tested on: NCI-H460 lung
SW-620 colon = tested on: SW-620 colon
UACC-62 melanoma = tested on: UACC-62 melanoma
MDA-MB-231 breast = tested on: MDA-MB-231 breast
HCT-15 colon = tested on: HCT-15 colon

Question: How did the GI50 (MOLT-4 leukemia) turn out when `C=CC(=O)Nc1cc(C)ccc1Nc1nc(Nc2cc(OC)ncc2C)ncc1C(F)(F)F` was run?
Answer: 3550 nM

Question: What about the TGI (MOLT-4 leukemia) of the same compound?
Answer: > 100000 nM

Question: What about the GI50 (HT29 colon) of the same compound?
Answer: 122 nM

Question: And the GI50 (SN12C renal)?
Answer: 714 nM

Question: What about the TGI (SN12C renal) of the same compound?
Answer: > 100000 nM

Question: And the GI50 (SNB-75 CNS)?
Answer: 285 nM

Question: What about the TGI (SNB-75 CNS) of the same compound?
Answer: 1450 nM

Question: What about the GI50 (KM12 colon) of the same compound?
Answer: 1130 nM

Question: And the TGI (KM12 colon)?
Answer: > 58100 nM

Question: What about the GI50 (MCF7 breast) of the same compound?
Answer: 864 nM

Question: And the TGI (MCF7 breast)?
Answer: > 32800 nM

Question: And the GI50 (COLO 205 colon)?
Answer: 55.5 nM

Question: And the TGI (COLO 205 colon)?
Answer: 1480 nM

Question: And the GI50 (OVCAR-8 ovarian)?
Answer: 2830 nM

Question: And the TGI (OVCAR-8 ovarian)?
Answer: > 100000 nM

Question: And the GI50 (MALME-3M melanoma)?
Answer: 21.1 nM

Question: What about the TGI (MALME-3M melanoma) of the same compound?
Answer: 161 nM

Question: What about the GI50 (MDA-MB-435) of the same compound?
Answer: 308 nM

Question: What about the TGI (MDA-MB-435) of the same compound?
Answer: 3850 nM

Question: And the GI50 (HL-60(TB) leukemia)?
Answer: 637 nM

Question: What about the TGI (HL-60(TB) leukemia) of the same compound?
Answer: 3700 nM

Question: What about the GI50 (A498 renal) of the same compound?
Answer: 157 nM

Question: And the TGI (A498 renal)?
Answer: 598 nM

Question: And the GI50 (OVCAR-5 ovarian)?
Answer: 227 nM

Question: And the TGI (OVCAR-5 ovarian)?
Answer: 2140 nM

Question: And the GI50 (OVCAR-4 ovarian)?
Answer: 1340 nM

Question: And the TGI (OVCAR-4 ovarian)?
Answer: > 100000 nM

Question: What about the GI50 (EKVX NSCLC) of the same compound?
Answer: 438 nM

Question: What about the TGI (EKVX NSCLC) of the same compound?
Answer: 3100 nM

Question: What about the GI50 (K-562 leukemia) of the same compound?
Answer: 2560 nM

Question: What about the TGI (K-562 leukemia) of the same compound?
Answer: > 100000 nM

Question: And the GI50 (NCI-H23 lung)?
Answer: 635 nM

Question: And the TGI (NCI-H23 lung)?
Answer: > 22900 nM

Question: What about the GI50 (NCI-H522 lung) of the same compound?
Answer: 1140 nM

Question: What about the TGI (NCI-H522 lung) of the same compound?
Answer: > 31600 nM

Question: What about the GI50 (T-47D breast) of the same compound?
Answer: 1200 nM

Question: And the TGI (T-47D breast)?
Answer: > 100000 nM

Question: And the GI50 (CAKI-1 renal)?
Answer: 514 nM

Question: What about the TGI (CAKI-1 renal) of the same compound?
Answer: 1840 nM

Question: What about the GI50 (HOP-92 NSCLC) of the same compound?
Answer: 188 nM

Question: And the TGI (HOP-92 NSCLC)?
Answer: 981 nM

Question: What about the GI50 (SNB-19 CNS) of the same compound?
Answer: 936 nM

Question: And the TGI (SNB-19 CNS)?
Answer: > 100000 nM

Question: And the GI50 (IGROV1 ovarian)?
Answer: 244 nM

Question: And the TGI (IGROV1 ovarian)?
Answer: 1250 nM

Question: What about the GI50 (A549 NSCLC) of the same compound?
Answer: 1020 nM

Question: And the TGI (A549 NSCLC)?
Answer: 4590 nM

Question: And the GI50 (HOP-62 NSCLC)?
Answer: 741 nM

Question: What about the TGI (HOP-62 NSCLC) of the same compound?
Answer: > 66700 nM

Question: What about the GI50 (LOX IMVI melanoma) of the same compound?
Answer: 142 nM

Question: And the TGI (LOX IMVI melanoma)?
Answer: 1030 nM

Question: What about the GI50 (NCI-H226 lung) of the same compound?
Answer: 901 nM

Question: What about the TGI (NCI-H226 lung) of the same compound?
Answer: 4390 nM

Question: What about the GI50 (SF-539 CNS) of the same compound?
Answer: 344 nM

Question: What about the TGI (SF-539 CNS) of the same compound?
Answer: 1630 nM

Question: And the GI50 (UACC-257 melanoma)?
Answer: 152 nM

Question: And the TGI (UACC-257 melanoma)?
Answer: 1080 nM

Question: And the GI50 (HS 578T breast)?
Answer: 869 nM

Question: What about the TGI (HS 578T breast) of the same compound?
Answer: 4860 nM

Question: And the GI50 (SF-268 CNS)?
Answer: 1280 nM

Question: What about the TGI (SF-268 CNS) of the same compound?
Answer: > 100000 nM

Question: And the GI50 (M14 melanoma)?
Answer: 66.8 nM

Question: What about the TGI (M14 melanoma) of the same compound?
Answer: 686 nM

Question: And the GI50 (BT-549 breast)?
Answer: 585 nM

Question: What about the TGI (BT-549 breast) of the same compound?
Answer: 6070 nM

Question: What about the GI50 (PC-3 prostate) of the same compound?
Answer: 2180 nM

Question: And the TGI (PC-3 prostate)?
Answer: > 100000 nM

Question: What about the GI50 (SK-MEL-5 melanoma) of the same compound?
Answer: 1770 nM

Question: What about the TGI (SK-MEL-5 melanoma) of the same compound?
Answer: 5420 nM

Question: What about the GI50 (SK-MEL-28 melanoma) of the same compound?
Answer: 88.3 nM

Question: And the TGI (SK-MEL-28 melanoma)?
Answer: 1080 nM

Question: What about the GI50 (HCT-116 colon) of the same compound?
Answer: 256 nM

Question: What about the TGI (HCT-116 colon) of the same compound?
Answer: 1310 nM

Question: And the GI50 (786-0 renal)?
Answer: 692 nM

Question: What about the TGI (786-0 renal) of the same compound?
Answer: > 100000 nM

Question: What about the GI50 (SK-MEL-2 melanoma) of the same compound?
Answer: 313 nM

Question: What about the TGI (SK-MEL-2 melanoma) of the same compound?
Answer: 1850 nM

Question: What about the GI50 (SF-295 CNS) of the same compound?
Answer: 2840 nM

Question: What about the TGI (SF-295 CNS) of the same compound?
Answer: > 100000 nM

Question: And the GI50 (HCC-2998 colon)?
Answer: 261 nM

Question: And the TGI (HCC-2998 colon)?
Answer: 4340 nM

Question: And the GI50 (TK-10 renal)?
Answer: 416 nM

Question: And the TGI (TK-10 renal)?
Answer: > 100000 nM

Question: And the GI50 (ACHN renal)?
Answer: 397 nM

Question: And the TGI (ACHN renal)?
Answer: 2070 nM

Question: What about the GI50 (SK-OV-3 ovarian) of the same compound?
Answer: 4090 nM

Question: What about the TGI (SK-OV-3 ovarian) of the same compound?
Answer: > 100000 nM

Question: And the GI50 (U251 CNS)?
Answer: 758 nM

Question: And the TGI (U251 CNS)?
Answer: > 100000 nM

Question: And the GI50 (RXF 393 renal)?
Answer: 352 nM

Question: What about the TGI (RXF 393 renal) of the same compound?
Answer: 1850 nM

Question: And the GI50 (CCRF-CEM leukemia)?
Answer: 3730 nM

Question: What about the TGI (CCRF-CEM leukemia) of the same compound?
Answer: > 100000 nM

Question: And the GI50 (DU-145 prostate)?
Answer: 996 nM

Question: What about the TGI (DU-145 prostate) of the same compound?
Answer: 12300 nM

Question: And the GI50 (UO-31 renal)?
Answer: 214 nM

Question: What about the TGI (UO-31 renal) of the same compound?
Answer: 2270 nM

Question: And the GI50 (NCI/ADR-RES ovarian)?
Answer: 1690 nM

Question: What about the TGI (NCI/ADR-RES ovarian) of the same compound?
Answer: > 26500 nM

Question: And the GI50 (OVCAR-3 ovarian)?
Answer: 1400 nM

Question: What about the TGI (OVCAR-3 ovarian) of the same compound?
Answer: > 100000 nM

Question: What about the GI50 (RPMI-8226 leukemia) of the same compound?
Answer: 634 nM

Question: And the TGI (RPMI-8226 leukemia)?
Answer: > 25300 nM

Question: What about the GI50 (NCI-H460 lung) of the same compound?
Answer: 2130 nM

Question: And the TGI (NCI-H460 lung)?
Answer: 11400 nM

Question: And the GI50 (SW-620 colon)?
Answer: 322 nM

Question: What about the TGI (SW-620 colon) of the same compound?
Answer: 3230 nM

Question: What about the GI50 (UACC-62 melanoma) of the same compound?
Answer: 72.5 nM

Question: And the TGI (UACC-62 melanoma)?
Answer: 710 nM

Question: What about the GI50 (MDA-MB-231 breast) of the same compound?
Answer: 336 nM

Question: What about the TGI (MDA-MB-231 breast) of the same compound?
Answer: 1870 nM

Question: What about the GI50 (HCT-15 colon) of the same compound?
Answer: 1050 nM

Question: What about the TGI (HCT-15 colon) of the same compound?
Answer: > 28500 nM
